Our source for the melting point values is a melting point compilation (Tetko et al.; mined from patent text by program, amines drawn as free bases though some values may be those of a salt).

With `O=Cc1ccc(CCCCCCCC(=O)O)o1`, the melting point fell in the range of 70 to 72 °C. Regarding `O=S(=O)(c1ccccc1)N1CCC(C(O)(c2ccc(F)cc2)c2ccc(F)c(F)c2)CC1` (configuration not stated), the melting point was 97 to 99 °C.

Regarding `CCOC(=O)C1=C(C)NC(c2csc(C)n2)=NC1c1ccc(O)cc1` (configuration not stated), the melting point was in the range of 208 to 210 °C. For `Cc1ccc(-c2ccccc2-c2nnnn2-c2ccc([N+](=O)[O-])cc2)cc1` the value was 164 to 166 °C. `CC1=C(C(=O)O)N2C(=O)C(NC(=O)Cc3ccc(CN=[N+]=[N-])cc3)C2SC1` (configuration not stated) showed a melting point of 154 to 155 °C.

Molecule `CC1(C)CC(=O)c2c(C3CCCCC3)sc(C#N)c2C1` had a melting point of 129 to 132 °C.

Consider `CCN1C(=O)N(c2ccc([N+](=O)[O-])c(C(F)(F)F)c2)C(=O)C1(C)C`, for which the melting point lay within 110 to 111 °C. `O=C1Nc2cccc(-c3cccc(C(F)(F)F)c3)c2/C1=C/c1ccc[nH]1` had a melting point of 197 to 198 °C.

`CC1CCCC(C)N1CCCC(O)(c1ccccc1)c1ccccc1` (configuration not stated) gave a melting point of 90 to 91 °C.

`CC(O)(CCC#N)c1ccc(Oc2ccc(Cl)cc2)cc1` (configuration not stated) came in with a melting point of 68 to 70 °C. In turn, `CCN1CCc2ccc(Nc3ncc(Cl)c(N[C@H]4CCCC[C@H]4C(=O)NC)n3)cc2CC1` (relative stereo) gave a melting point of 143 °C. On to `CC(C)Cc1n[nH]c2c1c(=O)n(-c1ccccc1)c1ncccc21`, for which the melting point lay in the range of 217 to 220 °C. In the case of `O=C(Oc1ccc([N+](=O)[O-])cc1)[C@@H]1CCCN1C(=O)OCc1ccccc1` it was 94 to 96 °C; in that of `CCCN(CCC)C1Cc2cccc3c2N(C1)C(=O)NC3` (configuration not stated), 116 to 119 °C; in that of `CCC(=O)Nc1cccc2c1C(=O)N(C1(C)CCC(=O)NC1=O)C2=O` (configuration not stated), 222 to 224 °C. In turn, `Nc1nnc(-c2ccc3ncn(-c4cccc(C(F)(F)F)c4)c3c2)o1` returned a melting point of 244 to 245 °C. With `COc1ccc(Cl)cc1C(=O)Nc1ccc(CC(=O)O)cc1`, the melting point is 152 °C.

Molecule `CCOC(=O)C1(O)CCSc2ccccc21` (configuration not stated) gave a melting point of 117 to 119 °C. Consider `COC(=O)c1c(C)nc2c(c1N)c1c(n2Cc2ccc(OC)cc2)CCCC1`, for which the melting point fell in the range of 130 to 131 °C. As to `O=C(NC1CCCCC1)NS(=O)(=O)c1ccc(CCNC(=O)N2Cc3ccccc3C2=O)cc1`, the melting point was 211 to 213 °C.

`O=C1CCCCCCCCCCCCCCCCC1O` (configuration not stated) gave a melting point of 31 to 32 °C.

As for `ON=Cc1sc(Cl)nc1Cl`, the melting point was 160 °C. `COc1ccc(-c2cc(CO)c(=O)n(CCCc3ccc(F)cc3)n2)cc1F` gave a melting point of 130 to 133 °C.

Turning to `COC(=O)c1cc(N)n[nH]1`, the melting point was 134 °C. The molecule `CC(Cl)c1nnc2n1-c1ccc(Cl)cc1C(c1ccccc1)=NC2` (configuration not stated) had a melting point of 154 to 156 °C.

Consider `Cn1cc(C2=C(c3c4n(c5ccccc35)CC(O)CC4)C(=O)NC2=O)c2ccccc21` (configuration not stated), for which the melting point was 252 to 255 °C. For `O=C1CCC(N2Cc3c(OCc4ccc(CN5CCC(c6cccnc6)CC5)cc4)cccc3C2=O)C(=O)N1` (configuration not stated) the value was 161 to 163 °C; for `CSc1nn(C(=S)Oc2ccccc2)c(=O)n1C`, 242 °C. In the case of `CC(C)c1cc(-c2ccc(F)cc2)nc(O)n1` it was 215 to 217 °C; in that of `COC(=O)c1ncn2c1[C@@H]1CCCN1C(=O)c1ccccc1-2`, 165 to 167 °C; in that of `Cc1cc(-c2nnc3c4cccnc4c(OCc4ncnn4C)nn23)no1`, 255 to 257 °C.

Regarding `CCOc1ccc(C(C)=O)cc1C(=O)OC`, the melting point was 50 to 55 °C. Molecule `CCOc1ccc(NC(=O)C(C)(C)O)cc1` had a melting point of 146 to 148 °C. `CSc1cccc2c1CCn1cc(-c3ccccc3)nc1C2OC1CCN(C)CC1` (configuration not stated): the melting point was determined as 134 °C. Take `CC1(C)CC(OC(=O)c2ccccc2)CC(C)(C)N1OC(=NC1CCCCC1)NC1CCCCC1`: the melting point lay in the range of 50 to 57 °C. In turn, `CCCCNc1nc(N(CCCC)C2CC(C)(C)N(OC3CCCCC3)C(C)(C)C2)nc(N(CCCC)C2CC(C)(C)N(OC3CCCCC3)C(C)(C)C2)n1` registered a melting point of 80 to 86 °C. The molecule `O=c1occ(CSc2ccc([N+](=O)[O-])cc2)o1` yielded a melting point of 109 to 112 °C. As to `COc1cc2c(cc1OC)C(Cc1ccncc1)(Cc1ccncc1)CN=C2c1ccccc1`, the melting point fell in the range of 168 to 169 °C. For the molecule `CC(C)(C)c1cc2c(c(C(C)(C)C)c1)OP(OC1CC(C)(C)N(OC3CCCCC3)C(C)(C)C1)Oc1c(cc(C(C)(C)C)cc1C(C)(C)C)C2`, the melting point was in the range of 140 to 144 °C. `COc1cc(Nc2c(C#N)cnc3cc(-c4cccc(CN5CCOCC5)c4)ccc23)c(Cl)cc1Cl`: the melting point was 88 to 91 °C. `CCOC(=O)CC(O)CCCCCNC(=O)OCc1ccccc1` (configuration not stated) yielded a melting point of 47 to 50 °C. In the case of `O=C(Cn1c(-c2ccc([N+](=O)[O-])cc2)ncc(NC(=O)OCc2ccccc2)c1=O)NC(Cc1ccccc1)C(=O)C(F)(F)F` (configuration not stated) it was 117 to 121 °C.

`CCCCCCCCCCCCCC(=O)Nc1ccc(Cl)c(NC2=NN(c3c(Cl)cc(Cl)cc3Cl)C(=O)C2SCc2ccccc2)c1` (configuration not stated): the melting point lay in the range of 182 to 185 °C. For `CC(C)c1cccc(-c2c(Cl)ccc3c2C=C(C(=O)O)C(C(F)(F)F)O3)c1` (configuration not stated) the value was 184 to 186 °C. `COC(=O)c1cccc2c1OCO2` showed a melting point of 55 to 57 °C. The molecule `NS(=O)(=O)c1ccc(NC(=O)Nc2ccc3c(c2)Cc2ccccc2-3)cc1` returned a melting point of 280 to 285 °C. In the case of `CCn1cc(Cl)c(=O)[nH]c1=O`, the melting point fell in the range of 217 to 220 °C. `CC(=O)c1ccc2c3c1ccn3C(=O)CNC2`: the melting point lay in the range of 285 to 287 °C. Turning to `CCOCCOC(=O)C(=O)Nc1nc(-c2ccc(OC)cc2OC)cs1`, the melting point was 118 to 120 °C. `Nc1ccc(F)cc1C(=O)c1ccccc1` returned a melting point of 112 to 113 °C. `O=C(Nc1ccccn1)C(=O)OC1CCCCC1` displayed a melting point of 62 to 64 °C.

The molecule `CCOC(=O)CN1CCN(S(=O)(=O)c2ccc(N3CCC(NC[C@H](O)c4ccc(O)c(NS(C)(=O)=O)c4)CC3)cc2)CC1` showed a melting point of 91 to 92 °C. Molecule `CCCCCCCNC(=O)Nc1ccc(O)cc1C(=O)NCCC(c1ccccc1)c1ccccc1` gave a melting point of 161 to 162 °C. Regarding `COc1ccc2c(c1)C(=O)N(CCCNCCCN1C(=O)c3cc(OC)ccc3C(C)(C)C1=O)C(=O)C2(C)C`, the melting point was 151 to 152 °C. As for `CCCc1nc2c(N)nc3ccc(C)cc3c2s1`, the melting point lay within 147 to 149 °C.

Molecule `Nc1ncnc2c1c(-c1cccc(CO)c1)nn2Cc1oc2ccccc2c(=O)c1-c1ccccc1` had a melting point of 219 to 223 °C. Consider `CCCCCCC(C)Oc1ccc(N=Cc2ccccc2)cc1` (configuration not stated), for which the melting point was 47.3 °C. `CC(=O)SCC(Cc1ccccc1)C(=O)NN1CCCC1` (configuration not stated) registered a melting point of 91 °C. Consider `Oc1ccc2c(c1)CN(C1CC1)C2`, for which the melting point came out at 170 °C. Molecule `CN(C)c1nc2cc(C(F)(F)F)ccc2n1Cc1ccc(Cl)cc1` showed a melting point of 103 to 107 °C.

Turning to `Clc1cccc(Cl)c1-c1nsnc1OCCBr`, the melting point is 60 to 61 °C.

`Cc1ccc(Cn2c(-c3ccc(C(O)(C(F)(F)F)C(F)(F)F)cc3)cc3ccccc3c2=O)cc1` registered a melting point of 267 to 268 °C. With `CSc1nc(-c2ccc(C#N)cc2)cn1-c1ccc(Br)cc1`, the melting point lay in the range of 188 to 190 °C. In turn, `O=C(CCl)Nc1ccc2c(c1NC(=O)c1cc(C(F)(F)F)ccc1C(F)(F)F)C(=O)c1ccccc1C2=O` registered a melting point of 187 to 188 °C. Molecule `CC(C)(C)c1ocnc1/C=C1\NC(=O)[C@H](Cc2ccccc2)NC1=O` returned a melting point of 52 to 56 °C. `CC(=O)NCCn1c(C)ccc1C` displayed a melting point of 106 to 107 °C. On to `Cc1oc(-c2ccccc2)nc1CCOc1cccc2c1ccn2C(C)C(=O)O` (configuration not stated), for which the melting point lay in the range of 157 to 159 °C. For `c1ccc2c(c1)OCCc1c-2n(CCN2CCCCC2)c2ccccc12`, the melting point was 103 °C. In turn, `O=C1CSc2ccc(S(=O)(=O)Cc3c(Cl)cccc3Cl)cc2N1` showed a melting point of 244 to 246 °C. In the case of `O=C(C=Cc1ccc(COC2OC(CO)C(O)C(O)C2O)o1)c1ccccc1` (configuration not stated) it was 127 °C; in that of `Nc1nc2c(s1)CC(CNC(=O)[C@@H]1CCCN1C(=O)[C@@H](CC1CCCCC1)NS(=O)(=O)Cc1ccccc1)CC2` (some centres not stated), 203 to 205 °C. For `COC(=O)c1sc(OC)c(C)c1O` the value was 63 to 65 °C; for `COc1nc(CC(=O)OC(C)(C)C)c([N+](=O)[O-])cc1C`, 71 to 72.5 °C; for `COc1ccc(-c2nnc3c4ccccc4c(OCCCCO)nn23)cc1`, 180 to 182 °C. For `N#Cc1cc(C(F)(F)F)[nH]c1-c1sc(Cl)c(Cl)c1Cl` the value was 220 to 221 °C; for `COc1cc(CN2CC[C@H](O)C2)ccc1-c1nc2c(N[C@H]3[C@@H](C(N)=O)[C@@H]4C=C[C@H]3C4)c(Cl)cnc2[nH]1`, 205 to 208 °C; for `COc1cccc2c1C(=O)c1c(OC)cc(C#N)cc1C2=O`, 266 to 268 °C. The molecule `CS(=O)(=O)c1ccc(-c2cnn(-c3ccc(Cl)s3)c(=O)c2-c2ccc(Cl)cc2)cc1` returned a melting point of 249 to 251 °C. Molecule `CCCOc1ccc(Cc2nn(-c3ccccc3Cl)c(=O)o2)cc1` yielded a melting point of 68 °C.

As for `Nc1nc2c(s1)CCN(CC=Cc1ccc3ccccc3c1)CC2`, the melting point was in the range of 164 to 165 °C.

In turn, `Cc1nc(-n2cc(CCC3CCCCC3)nn2)sc1C(=O)NCc1ccccc1` showed a melting point of 82 to 84 °C. Consider `Cc1nn(-c2c(Cl)cc(C(F)(F)F)cc2Cl)c(C)c1-c1nc(C#N)c(C#N)[nH]1`, for which the melting point was 80 to 83 °C.

The molecule `O=C1O[C@@H](CO)CN1c1ccc(Br)cn1` yielded a melting point of 123 to 124 °C. `COc1cccc(Oc2c(NCCOc3ncccn3)ncnc2NS(=O)(=O)c2ccc(C(C)(C)C)cc2)c1` registered a melting point of 148 to 149 °C.

For `CN1C(=O)Nc2ccccc2C12NC(=O)NC2=O` (configuration not stated), the melting point is greater than 280 °C. `Cc1cc(C)c(-c2nc(Cl)nc(Cl)n2)c(C)c1` registered a melting point of 85 to 91 °C. `CC(C)(C)CN1C(=O)N(CC(=O)O)CC(c2ccccc2Cl)c2cc(Cl)ccc21` (configuration not stated) displayed a melting point of 228 to 231 °C.

Broadly, the melting point is the temperature of the solid-liquid transition.
